Test results reported in paper PMC8409435 (Journal of molecular biology, 2021).
Where no end group is shown, it is not given here.

Experiments:
[1] = target: PKA-C^E31V (catalytic α subunit of cAMP-dependent protein kinase A) (Homo sapiens, UniProt P17612, E32V); test: steady-state coupled enzyme assay; format: biochemical
[2] = target: PKA-C^WT (catalytic α subunit of cAMP-dependent protein kinase A) (Homo sapiens, UniProt P17612); test: steady-state coupled enzyme assay; format: biochemical

LRRASLG [Kemptide]
steady-state coupled enzyme assay (kcat/KM) [1]: 0.46 ± 0.04
steady-state coupled enzyme assay (kcat/KM) [2]: 0.41 ± 0.05
